# Target: T1, recombinant human mPGES-1 (Homo sapiens, UniProt O14684)
# T1 construct: made in house; host or cells: Rosetta E. coli (membrane/microsome fraction)
# T1 sequence (O14684 1-152): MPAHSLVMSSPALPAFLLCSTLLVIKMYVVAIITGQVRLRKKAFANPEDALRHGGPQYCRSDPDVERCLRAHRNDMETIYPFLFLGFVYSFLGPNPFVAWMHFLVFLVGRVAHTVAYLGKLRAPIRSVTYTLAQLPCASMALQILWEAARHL
# Assay: mPGES-1 HTRF assay (inhibition of PGE2 formation from PGH2)
# Type: biochemical
# Details: HTRF assay
# Summary of the method: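 Microsomes of E. coli expressing human mPGES-1, in 0.1 M KPi pH 7.4 with 2.5 mM GSH, preincubated 25 min at room temperature with inhibitor, then given PGH2 for 1 min before FeCl2 acidic stop. PGE2 quantified by HTRF (665/620 nm ratio) against synthetic PGE2 standard curve; percent inhibition versus controls.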
row,SMILES,IC50
1,"Cn1c(Nc2cc(CNC(=O)C(C)(F)F)ccc2Cl)nc2cc(C(=O)Nc3ccc(Br)cc3)c(OCC(F)F)cc21 [Example 72, N-(4-Bromo-phenyl)-2-(2-chloro-5-{[(1,1-difluoro-ethylcarbonyl)-amino]-methyl}-phenylamino)-6-(2,2-difluoro-ethoxy)-1-methyl-1H-benzimidazole-5-carboxylic acid amide]",3 nM
2,"CC(C(=O)NCc1ccc(Cl)c(Nc2nc3cc(C(=O)Nc4ccc(Br)cc4)c(OCC(F)F)cc3n2C)c1)C(F)(F)F (centres unmarked) [Example 73, N-(4-Bromo-phenyl)-2-(2-chloro-5-{[(1-trifluoromethyl-ethyl-carbonyl)-amino]-methyl}-phenylamino)-6-(2,2-difluoro-ethoxy)-1-methyl-1H-benzimidazole-5-carboxylic acid amide]",3 nM
3,"Cn1c(Nc2cc(CNC(=O)c3c(F)cccc3Cl)ccc2Cl)nc2cc(C(=O)Nc3ccc(Br)cc3)c(OCC(F)F)cc21 [Example 74, N-(4-Bromo-phenyl)-2-(2-chloro-5-{[(2-chloro-6-fluorophenylcarbonyl)-amino]-methyl}-phenylamino)-6-(2,2-difluoro-ethoxy)-1-methyl-1H-benzimidazole-5-carboxylic acid amide]",4 nM
4,"Cn1c(Nc2cc(CNC(=O)C(C)(N)C(F)(F)F)ccc2Cl)nc2cc(C(=O)Nc3ccc(Br)cc3)c(OCC(F)F)cc21 (centres unmarked) [Example 75, N-(4-Bromo-phenyl)-2-(2-chloro-5-{[(1-amino-1-trifluoromethyl-ethyl-carbonyl)-amino]-methyl}-phenylamino)-6-(2,2-difluoro-ethoxy)-1-methyl-1H-benzimidazole-5-carboxylic acid amide]",3 nM
5,"Cn1c(Nc2cc(CNC(=O)C3(O)CC3)ccc2Cl)nc2cc(C(=O)Nc3ccc(Br)cc3)c(OCC(F)F)cc21 [Example 76, N-(4-Bromo-phenyl)-2-(2-chloro-5-{[(1-hydroxycyclopropanecarbonyl)-amino]-methyl}-phenylamino)-6-(2,2-difluoro-ethoxy)-1-methyl-1H-benzimidazole-5-carboxylic acid amide]",3 nM
6,"Cn1c(Nc2cc(CNC(=O)C(C)(C)C(F)(F)F)ccc2Cl)nc2cc(C(=O)Nc3ccc(Br)cc3)c(OCC(F)F)cc21 [Example 77, N-(4-Bromo-phenyl)-2-(2-chloro-5-{[(1-methyl-1-trifluoromethyl-ethylcarbonyl)-amino]-methyl}-phenylamino)-6-(2,2-difluoro-ethoxy)-1-methyl-1H-benzimidazole-5-carboxylic acid amide]",4 nM
7,"CC(=O)NCc1ccc(Cl)c(Nc2nc3cc(C(=O)Nc4ccc(Br)cc4)c(OCC(F)F)cc3n2C)c1 [Example 79, N-(4-Bromo-phenyl)-2-(2-chloro-5-{[(methylcarbonyl)-amino]-methyl}-phenylamino)-6-(2,2-difluoro-ethoxy)-1-methyl-1H-benzimidazole-5-carboxylic acid amide]",4 nM
8,"Cn1c(Nc2cc(CNC(=O)C3CC3)ccc2Cl)nc2cc(C(=O)Nc3ccc(Br)cc3)c(OCC(F)F)cc21 [Example 80, N-(4-Bromo-phenyl)-2-(2-chloro-5-{[(cyclopropylcarbonyl)-amino]-methyl}-phenylamino)-6-(2,2-difluoro-ethoxy)-1-methyl-1H-benzimidazole-5-carboxylic acid amide]",9 nM
9,"Cn1c(Nc2cc(CN[S+]([O-])C(C)(C)C)ccc2Cl)nc2cc(C(=O)Nc3ccc(Br)cc3)c(OCC(F)F)cc21 (centres unmarked) [Example 81, N-(4-Bromo-phenyl)-2-(2-chloro-5-{[(tert-butylsulfinyl)-amino]-methyl}-phenylamino)-6-(2,2-difluoro-ethoxy)-1-methyl-1H-benzimidazole-5-carboxylic acid amide]",2 nM
10,"Cn1c(Nc2cc(CNS(=O)(=O)C(C)(C)C)ccc2Cl)nc2cc(C(=O)Nc3ccc(Br)cc3)c(OCC(F)F)cc21 [Example 82, N-(4-Bromo-phenyl)-2-(2-chloro-5-{[(tert-butylsulfonyl)-amino]-methyl}-phenylamino)-6-(2,2-difluoro-ethoxy)-1-methyl-1H-benzimidazole-5-carboxylic acid amide]",3 nM
11,"Cn1c(Nc2cc(CNC(=O)C3(C(F)(F)F)CC3)ccc2C(F)(F)F)nc2cc(C(=O)Nc3ccc(Br)cc3)c(OCC(F)F)cc21 [Example 83, N-(4-Bromo-phenyl)-2-(2-trifluoromethyl-5-{[(1-trifluoromethyl-cyclopropanecarbonyl)-amino]-methyl}-phenylamino)-6-(2,2-difluoro-ethoxy)-1-methyl-1H-benzimidazole-5-carboxylic acid amide]",3 nM
12,"Cn1c(Nc2cc(CNC(=O)C3(C(F)(F)F)CC3)c(F)cc2Cl)nc2cc(C(=O)N[C@H]3CC[C@H](C(F)(F)F)CC3)c(OCC(F)F)cc21 [Example 84, 2-(2-Chloro-4-fluoro-5-{[(1-(trifluoromethyl)cyclopropanecarbonyl)amino]methyl}-phenylamino)-6-(2,2-difluoroethoxy)-1-methyl-N-(trans-4-trifluoromethyl-cyclohex-1-yl)-1 H-benzo[d]imidazole-5-carboxamide]",4 nM
13,"COc1cc2[nH]c(Nc3cc(CNC(=O)OC(C)(C)C)ccc3C(F)(F)F)nc2cc1C(=O)N[C@H]1CC[C@H](C(F)(F)F)CC1 [Example 91, 2-({5-[(tert.Butoxycarbonyl)amino]methyl}-2-trifluoromethyl-phenylamino)-6-methoxy-N-(trans-4-trifluoromethyl-cyclohex-1-yl)-1H-benzo[d]imidazole-5-carboxamide]",4 nM

# The remaining lines, values ahead:
row,IC50,SMILES
1,2 nM,"Cn1c(Nc2cc(CNC(=O)C3(C(F)(F)F)CC3)c(F)cc2Cl)nc2cc(C(=O)Nc3ccc(Br)cc3)c(OCC(F)F)cc21 [Example 85, N-(4-Bromophenyl)-2-(2-chloro-4-fluoro-5-{[(1-trifluoromethyl-cyclopropanecarbonyl)amino]methyl}phenylamino)-6-(2,2-difluoroethoxy)-1-methyl-1H-benzo[d]imidazole-5-carboxamide]"
2,1 nM,"Cn1c(Nc2cc(CNC(=O)C(C)(C)C)ccc2Cl)nc2cc(C(=O)Nc3ccc(F)c(Cl)c3)c(OCC(F)F)cc21 [Example 86, N-(3-Chloro-4-fluoro-phenyl)-2-(2-chloro-5-{[(tert-butylcarbonyl)-amino]-methyl}-phenylamino)-6-(2,2-difluoro-ethoxy)-1-methyl-1H-benzimidazole-5-carboxylic acid amide]"
3,2 nM,"Cn1c(Nc2cc(CNC(=O)C(C)(C)C)ccc2Cl)nc2cc(C(=O)NCC3CC3(C)C)c(OCC(F)F)cc21 (centres unmarked) [Example 88, N-(2,2-Dimethylcyclopropyl-methyl)-2-(2-chloro-5-{[(tert-butylcarbonyl)-amino]-methyl}-phenylamino)-6-(2,2-difluoro-ethoxy)-1-methyl-1H-benzimidazole-5-carboxylic acid amide]"
4,2 nM,"Cn1c(Nc2cc(CNC(=O)C(C)(C)C)ccc2Cl)nc2cc(C(=O)NCC3CCC3)c(OCC(F)F)cc21 [Example 89, N-(Cyclobutylmethyl)-2-(2-chloro-5-{[(tert-butylcarbonyl)-amino]-methyl}-phenylamino)-6-(2,2-difluoro-ethoxy)-1-methyl-1H-benzimidazole-5-carboxylic acid amide]"
5,1 nM,"Cn1c(Nc2cc(CNC(=O)C(C)(C)C)ccc2Cl)nc2cc(C(=O)NCC#Cc3ccccc3)c(OCC(F)F)cc21 [Example 90, N-(3-Phenylpropargyl)-2-(2-chloro-5-{[(tert-butylcarbonyl)-amino]-methyl}-phenylamino)-6-(2,2-difluoro-ethoxy)-1-methyl-1H-benzimidazole-5-carboxylic acid amide]"
6,7 nM,"COc1cc2[nH]c(Nc3cc(CNC(=O)C(N)C(F)(F)F)ccc3C(F)(F)F)nc2cc1C(=O)N[C@H]1CC[C@H](C(F)(F)F)CC1 (stereo partly drawn) [Example 92, 2-({5-[(2-Amino-3,3,3-trifluoro-propionyl)amino]methyl}-2-trifluoromethyl-phenylamino)-6-methoxy-N-(trans-4-trifluoromethyl-cyclohex-1-yl)-1H-benzo[d]imidazole-5-carboxamide]"
7,2 nM,"COc1cc2[nH]c(Nc3cc(CNC(=O)C4(C(F)(F)F)CC4)ccc3C(F)(F)F)nc2cc1C(=O)N[C@H]1CC[C@H](C(F)(F)F)CC1 [Example 93, N-(trans-4-Trifluoromethyl-cyclohex-1-yl)-2-(2-trifluoromethyl-5-{[(1-trifluoromethylcyclopropane-carbonyl)amino]-methyl}-phenylamino)-6-methoxy-1H-benzimidazole-5-carboxylic acid amide]"
8,3 nM,"COc1cc2[nH]c(Nc3cc(CNC(=O)C4(O)CC4)ccc3C(F)(F)F)nc2cc1C(=O)N[C@H]1CC[C@H](C(F)(F)F)CC1 [Example 94, N-(trans-4-Trifluoromethyl-cyclohex-1-yl)-2-(2-trifluoromethyl-5-{[(1-hydroxy-cyclopropane-carbonyl)amino]-methyl}-phenylamino)-6-methoxy-1H-benzimidazole-5-carboxylic acid amide]"
9,1 nM,"Cn1c(Nc2cc(CNC(=O)C(C)(C)C)ccc2C(F)(F)F)nc2cc(C(=O)N[C@H]3CC[C@H](C(F)(F)F)CC3)c(OCC(F)F)cc21 [Example 95, N-(trans-4-Trifluoromethyl-cyclohex-1-yl)-1-methyl-2-(2-trifluoromethyl-5-{[(tert-butylcarbonyl)-amino]-methyl}-phenylamino)-6-(2,2-difluoro-ethoxy)-1H-benzimidazole-5-carboxylic acid amide]"
10,1 nM,"CC(C)(C)C(=O)NCc1ccc(C(F)(F)F)c(Nc2nc3cc(C(=O)N[C@H]4CC[C@H](C(F)(F)F)CC4)c(OCC(F)F)cc3[nH]2)c1 [Example 96, N-(trans-4-Trifluoromethyl-cyclohex-1-yl)-2-(2-trifluoromethyl-5-{[(tert-butylcarbonyl)-amino]-methyl}-phenylamino)-6-(2,2-difluoro-ethoxy)-1H-benzimidazole-5-carboxylic acid amide]"
